Measured values as given in PubChem BioAssay AID1918931 (Molecular Pharmacology Branch, DTP, NCI, 2023).

Tested on: 138582-337-R-J1-PDC complex spheroid viability
Assay: Anticancer human tumor 138582-337-R-J1-PDC patient-derived Merkel cell tumor cell line growth inhibition
Conditions: for IC50: curve of first compound; for viability, T/C: stronger effect = lower value
Procedure, shortened: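 Multicellular complex spheroids of tumor cells with human endothelial cells (HUVEC) and mesenchymal stem cells; the LSD1 inhibitor iadademstat was combined with standard-of-care or investigational agents. Top concentration at or near clinical Cmax, half-log dilutions; final DMSO ≤0.25%.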

[1] = second compound 0.1 µM, first compound 0.00949 µM
[2] = second compound 0.1 µM, first compound 0.03 µM
[3] = second compound 0.1 µM, first compound 0.0949 µM
[4] = second compound 0.1 µM, first compound 0.3 µM
[5] = second compound 0.1 µM, first compound 0.949 µM
[6] = second compound 0.1 µM, first compound 3 µM
[7] = second compound 0.316 µM, first compound 0.00949 µM
[8] = second compound 0.316 µM, first compound 0.03 µM
[9] = second compound 0.316 µM, first compound 0.0949 µM
[10] = second compound 0.316 µM, first compound 0.3 µM
[11] = second compound 0.316 µM, first compound 0.949 µM
[12] = second compound 0.316 µM, first compound 3 µM
[13] = second compound 1 µM, first compound 0.00949 µM
[14] = second compound 1 µM, first compound 0.03 µM
[15] = second compound 1 µM, first compound 0.0949 µM
[16] = second compound 1 µM, first compound 0.3 µM
[17] = second compound 1 µM, first compound 0.949 µM
[18] = second compound 1 µM, first compound 3 µM
[19] = second compound 3.16 µM, first compound 0.00949 µM
[20] = second compound 3.16 µM, first compound 0.03 µM
[21] = second compound 3.16 µM, first compound 0.0949 µM
[22] = second compound 3.16 µM, first compound 0.3 µM
[23] = second compound 3.16 µM, first compound 0.949 µM
[24] = second compound 3.16 µM, first compound 3 µM
[25] = second compound 10 µM, first compound 0.00949 µM
[26] = second compound 10 µM, first compound 0.03 µM
[27] = second compound 10 µM, first compound 0.0949 µM
[28] = second compound 10 µM, first compound 0.3 µM
[29] = second compound 10 µM, first compound 0.949 µM
[30] = second compound 10 µM, first compound 3 µM
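Further: spheroids exposed to agents for 7 days.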
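Wherever viability, T/C is given: 100% = DMSO vehicle control viability.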

Cn1ncnc1C1c2n[nH]c(=O)c3cc(F)cc(c23)NC1c1ccc(F)cc1 (stereo not given) + NC1CCC(NC2CC2c2ccccc2)CC1
IC50 (second compound 0.1 µM): > 100 nM
IC50 (second compound 0.316 µM): > 100 nM
IC50 (second compound 1 µM): > 100 nM
IC50 (second compound 3.16 µM): > 100 nM
IC50 (second compound 10 µM): > 100 nM
viability, T/C (second compound 0.1 µM, first compound 0.000316 µM): 82.5%
viability, T/C (second compound 0.1 µM, first compound 0.001 µM): 87.7%
viability, T/C (second compound 0.1 µM, first compound 0.00316 µM): 89%
viability, T/C (second compound 0.1 µM, first compound 0.01 µM): 91.2%
viability, T/C (second compound 0.1 µM, first compound 0.0316 µM): 87.9%
viability, T/C (second compound 0.1 µM, first compound 0.1 µM): 98.5%
viability, T/C (second compound 0.316 µM, first compound 0.000316 µM): 84.7%
viability, T/C (second compound 0.316 µM, first compound 0.001 µM): 90.9%
viability, T/C (second compound 0.316 µM, first compound 0.00316 µM): 95.7%
viability, T/C (second compound 0.316 µM, first compound 0.01 µM): 79.1%
viability, T/C (second compound 0.316 µM, first compound 0.0316 µM): 93.3%
viability, T/C (second compound 0.316 µM, first compound 0.1 µM): 105%
viability, T/C (second compound 1 µM, first compound 0.000316 µM): 97.5%
viability, T/C (second compound 1 µM, first compound 0.001 µM): 88.7%
viability, T/C (second compound 1 µM, first compound 0.00316 µM): 94.3%
viability, T/C (second compound 1 µM, first compound 0.01 µM): 83.8%
viability, T/C (second compound 1 µM, first compound 0.0316 µM): 90.7%
viability, T/C (second compound 1 µM, first compound 0.1 µM): 97.9%
viability, T/C (second compound 3.16 µM, first compound 0.000316 µM): 101%
viability, T/C (second compound 3.16 µM, first compound 0.001 µM): 89.4%
viability, T/C (second compound 3.16 µM, first compound 0.00316 µM): 83.1%
viability, T/C (second compound 3.16 µM, first compound 0.01 µM): 81.2%
viability, T/C (second compound 3.16 µM, first compound 0.0316 µM): 82.3%
viability, T/C (second compound 3.16 µM, first compound 0.1 µM): 102%
viability, T/C (second compound 10 µM, first compound 0.000316 µM): 84.7%
viability, T/C (second compound 10 µM, first compound 0.001 µM): 82.8%
viability, T/C (second compound 10 µM, first compound 0.00316 µM): 83.2%
viability, T/C (second compound 10 µM, first compound 0.01 µM): 77%
viability, T/C (second compound 10 µM, first compound 0.0316 µM): 73.7%
viability, T/C (second compound 10 µM, first compound 0.1 µM): 81.5%

NS(=O)(=O)OCC1CC(n2ccc3c(NC4CCc5ccccc54)ncnc32)CC1O (stereo not given) + NC1CCC(NC2CC2c2ccccc2)CC1
IC50 (second compound 0.1 µM): 621 nM
IC50 (second compound 0.316 µM): 658 nM
IC50 (second compound 1 µM): 629 nM
IC50 (second compound 3.16 µM): 471 nM
IC50 (second compound 10 µM): 819 nM
viability, T/C [1]: 98.5%
viability, T/C [2]: 114%
viability, T/C [3]: 92.1%
viability, T/C [4]: 67.2%
viability, T/C [5]: 40.5%
viability, T/C [6]: 33.1%
viability, T/C [7]: 112%
viability, T/C [8]: 96.2%
viability, T/C [9]: 84.2%
viability, T/C [10]: 67.3%
viability, T/C [11]: 37.4%
viability, T/C [12]: 37%
viability, T/C [13]: 106%
viability, T/C [14]: 107%
viability, T/C [15]: 85.5%
viability, T/C [16]: 72.4%
viability, T/C [17]: 35.3%
viability, T/C [18]: 32.2%
viability, T/C [19]: 101%
viability, T/C [20]: 119%
viability, T/C [21]: 90.1%
viability, T/C [22]: 64.3%
viability, T/C [23]: 29.8%
viability, T/C [24]: 22.2%
viability, T/C [25]: 107%
viability, T/C [26]: 107%
viability, T/C [27]: 92.8%
viability, T/C [28]: 79.5%
viability, T/C [29]: 44.4%
viability, T/C [30]: 26%

O=C(C=Cc1cccc(S(=O)(=O)Nc2ccccc2)c1)NO + NC1CCC(NC2CC2c2ccccc2)CC1
IC50 (second compound 0.1 µM): 580 nM
IC50 (second compound 0.316 µM): 678 nM
IC50 (second compound 1 µM): 562 nM
IC50 (second compound 3.16 µM): 483 nM
IC50 (second compound 10 µM): 408 nM
viability, T/C [1]: 82.7%
viability, T/C [2]: 90.2%
viability, T/C [3]: 96%
viability, T/C [4]: 75.3%
viability, T/C [5]: 30.4%
viability, T/C [6]: 2.19%
viability, T/C [7]: 69.6%
viability, T/C [8]: 89.3%
viability, T/C [9]: 95.8%
viability, T/C [10]: 93.6%
viability, T/C [11]: 34.7%
viability, T/C [12]: 2.29%
viability, T/C [13]: 85.3%
viability, T/C [14]: 92.6%
viability, T/C [15]: 97.8%
viability, T/C [16]: 66.5%
viability, T/C [17]: 34.1%
viability, T/C [18]: 1.94%
viability, T/C [19]: 76.5%
viability, T/C [20]: 92.3%
viability, T/C [21]: 79.5%
viability, T/C [22]: 64.7%
viability, T/C [23]: 28.7%
viability, T/C [24]: 0.44%
viability, T/C [25]: 73.9%
viability, T/C [26]: 77.6%
viability, T/C [27]: 82.2%
viability, T/C [28]: 52.3%
viability, T/C [29]: 29.9%
viability, T/C [30]: 0.47%
